According to PMC8942850, “Boron clusters as broadband membrane carriers” (Nature, 2022):

What was measured:
[1] = Carboxyfluorescein (CF) leakage assay, anionic vesicles; settings: anionic liposomes DMPE/DPPG/CHOL 1/2/1, 13 µM phospholipids, 10 mM Tris, 140 mM NaCl, pH 7.4; CF fluorescence; Hill analysis; read-out: EC50 membrane-disrupting activity (CF leakage)
Protocol: A thin lipid film was prepared by evaporating a lipid solution with a stream of nitrogen and then dried in vacuo overnight. For the zwitterionic vesicles, 25 mg EYPC in 1 ml of CHCl3 was used, and for the anionic vesicles, DMPE/DPPG/CHOL (4.4/10.4/2.6 mg, 1/2/1 molar ratio) in a 1:1 mixture of CHCl3 and MeOH (1 ml) was used. […]
For leakage experiments with the lipid⊃CF vesicles, stock solutions (6 µl) were diluted with the respective buffer in a disposable plastic cuvette and gently stirred (total volume 2,000 µl, final lipid concentration 13 µM). CF fluorescence was monitored at λem = 517 nm (λex = 492 nm) as a function of time after addition of the respective activating or disrupting agent (cluster, WR7 or pyrenebutyrate) at 50 s, and Triton X-100 (24 µl 1.2% (wt/vol)) at 600 s, the latter to lyse the vesicles, for calibration. Fluorescence intensities were normalized to fractional emission intensity as I(t) = (It − I0)/(I∞ − I0), where I0 = It before disrupting agent addition and I∞ = It after Triton X-100 lysis. […]
Extended Data Fig. 1 Assays testing for stability vs leakage of the vesicles. a, Response of the HPTS/DPX assay towards a membrane-disrupting agent and chemical structures of the fluorescent dye HPTS and the quencher DPX. In this assay, large unilamellar vesicles are loaded with the HPTS/DPX probe/quencher pair, such that the fluorescence of HPTS is quenched. […]

[2] = system: adenocarcinoma human alveolar basal epithelial cells A549; assay: MTT viability with B12Br12^2− or R8; design: dose or concentration left out as unconfirmed; settings: 3 h in HKR + 24 h medium, mean of five measurements
Protocol: (§1) The incubation mixtures were replaced with DMEM + 10% FBS + 0.5 mg ml^–1 MTT. For the viability assays in the presence of B12Br12^2− or R8, HeLa, GT1-7, ARPE-19 and A549 cells were seeded the day before in 96-well plates at 6,000 cells per well. Cells were incubated with B12Br12^2− or R8 dissolved in HKR buffer for 3 h and, thereafter, incubated for 24 h with complete medium before incubating with complete medium and 0.5 mg ml^−1 MTT. For viability studies in the presence of MMAF, HeLa cells were incubated with MMAF and B12Br12^2− diluted in DMEM (without serum or antibiotics) for 3 h. Cells were washed with 0.1 mg ml^−1 heparin and further incubated for 21 h in complete medium and 2 h in complete medium containing 0.5 mg ml^−1 MTT. For all types of assays, after 2 h of incubation, the medium was carefully removed, and formazan crystals dissolved by addition of DMSO. The absorbance at 570 nm was measured with a plate reader (Tecan Infinite F200Pro) and the data normalized to the value of untreated cells (100% viability). Data were analysed with R (v. 4.0.3)[54].
(§2) Cells were incubated with 7 µM phalloidin-TRITC (red) in the absence (left) and presence of 50 µM ^AcR8 (middle) or 50 µM of B12Br12^2− cluster (right) in HKR buffer for 3 h, subsequently stained with Hoechst (blue), washed with DMEM without phenol red, and imaged by confocal fluorescence microscopy; bright-field images in insets. Micrographs from each cell line were processed independently, experiments were performed twice. e, MTT viability assay of the corresponding cell lines (HeLa, GT1-7, ARPE-19 and A549, from left to right) at different concentrations (0, 25, 75, 250, and 500 µM) of B12Br12^2− (black) or ^AcR8 (red); data are mean ± s.d. of five measurements. f, Confocal images of HeLa cells after incubation with 500 nM phalloidin-TRITC and different concentrations B12Br12^2−; the images correspond to those of Fig. 4 in the main text, but are shown with increased brightness to facilitate observation of the actin filaments. Representative images of two biological replicates. All scale bars are […], except for panel f (50 µm). Source data

HeLa cells = assay: MTT viability with B12Br12^2− or R8; design: dose or concentration left out as unconfirmed; settings: 3 h in HKR + 24 h medium, mean of five measurements
Protocol: as §1, §2

## B12Br12^2−
[1]
  EC50: 960 ± 100 µM
[2]; 25 as printed
  mean_viability: 106.289%
[2]; 75 as printed
  mean_viability: 109.955%
HeLa cells; 25 as printed
  mean_viability: 104.374%
HeLa cells; 75 as printed
  mean_viability: 100.045%
